Results: patent publication US9006256B2, “Antitumor agent for thyroid cancer” (Eisai R&D Management Co., Ltd., priority 2006, dated 2015)
One block for each compound: values may come before it.

Experiments:
[1] = system: human medullary thyroid carcinoma cell line (TT); assay: Antitumor effect in model for subcutaneous transplantation of human medullary thyroid carcinoma cell line (TT); format: in vivo, nude mouse; settings: oral, 10, 30 or 100 mg/kg, once a day, four weeks
Experimental: (§1) Human medullary thyroid carcinoma cell line (TT, purchased from ATCC) was cultured at 37° C. in RPMI1640 (containing 15% FBS) in a 5% carbon dioxide incubator to about 80% confluence, and cells were harvested with trypsin-EDTA according to a general method. The cells were suspended in a phosphate buffer to prepare 1×10^8 cells/mL suspension. 0.1 mL each of the resulting cell suspension was subcutaneously transplanted to a nude mouse at the side of its body (purchased from Charles River).
The major and minor axes of tumors were measured with Digimatic caliper (Mitsutoyo), and tumor volumes were calculated according to the following formula. Tumor Volume (TV)=Major axis of tumor (mm)×(Minor axis of tumor)^2 (mm^2)/2

RET = target: T1, RET (Homo sapiens, UniProt P07949, C634W); assay: RET phosphorylation in tumor tissue of model for subcutaneous transplantation of TT; format: in vivo, nude mouse; settings: oral, 10, 30 or 100 mg/kg; tumors resected 2, 8, 12 or 24 hours after administration
T1 construct: from tissue; host or cells: Subcutaneous TT tumour resected from nude mice (TT from ATCC, mice from Charles River)
T1 sequence (P07949 29-1114 C634W): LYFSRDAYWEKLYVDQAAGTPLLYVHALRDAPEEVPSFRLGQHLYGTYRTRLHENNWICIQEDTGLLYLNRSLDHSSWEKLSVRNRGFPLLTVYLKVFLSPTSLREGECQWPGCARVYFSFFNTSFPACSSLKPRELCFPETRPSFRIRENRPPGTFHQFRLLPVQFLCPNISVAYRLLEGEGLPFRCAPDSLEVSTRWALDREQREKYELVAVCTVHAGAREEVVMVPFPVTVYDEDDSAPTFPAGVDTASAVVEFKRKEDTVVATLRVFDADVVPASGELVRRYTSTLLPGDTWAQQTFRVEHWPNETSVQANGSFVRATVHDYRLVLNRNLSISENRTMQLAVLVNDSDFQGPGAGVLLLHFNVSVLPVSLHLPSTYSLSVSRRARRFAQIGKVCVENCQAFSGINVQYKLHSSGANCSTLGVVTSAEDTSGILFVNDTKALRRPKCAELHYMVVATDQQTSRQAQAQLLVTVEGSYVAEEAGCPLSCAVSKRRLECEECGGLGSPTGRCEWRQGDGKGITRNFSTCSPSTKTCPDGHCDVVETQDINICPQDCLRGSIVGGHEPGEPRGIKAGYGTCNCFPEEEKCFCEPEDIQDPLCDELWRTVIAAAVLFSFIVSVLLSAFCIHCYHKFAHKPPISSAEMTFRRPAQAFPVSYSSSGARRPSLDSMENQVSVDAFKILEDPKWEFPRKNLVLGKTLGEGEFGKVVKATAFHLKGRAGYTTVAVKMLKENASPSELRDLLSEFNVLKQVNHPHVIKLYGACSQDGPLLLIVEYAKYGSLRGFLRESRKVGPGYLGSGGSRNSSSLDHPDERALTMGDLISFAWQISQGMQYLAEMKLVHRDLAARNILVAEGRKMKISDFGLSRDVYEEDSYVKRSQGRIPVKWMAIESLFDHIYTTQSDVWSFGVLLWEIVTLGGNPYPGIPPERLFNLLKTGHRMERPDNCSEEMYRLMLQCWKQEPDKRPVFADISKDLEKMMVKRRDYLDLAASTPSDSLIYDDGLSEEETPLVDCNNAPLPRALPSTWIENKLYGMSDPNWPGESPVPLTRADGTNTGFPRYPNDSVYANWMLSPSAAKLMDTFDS
Experimental: as §1
Tumors were resected 2, 8, 12 or 24 hours after administration, to which solubilizing buffer (50 mM Hepes (pH7.4), 150 mM NaCl, 10% (v/v) glycerol, 1% Triton X-100, 1.5 mM MgCl2, 1 mM EDTA (pH 8.0), 100 mM NaF, 1 mM PMSF, 10 μg/mL Aprotinin, 50 μg/mL Leupeptin, 1 μg/mL Pepstatin A, 1 mM Na3VO4), 25 mM β-glycerophosphate, and phosphatase inhibitor cocktail II (SIGMA)) were added and homogenized. Treatment at 15,000 rpm and 4° C. for 15 minutes and addition of SDS buffer to the supernatant were followed by treatment at 94° C. for 5 minutes to solubilize protein to 20 μg/10 μL to prepare cell extract. The cell extract was subjected to electrophoresis and immunoblotting in the same manner as in Example 2.

[2] = system: human medullary thyroid carcinoma cell line (TT); assay: Cell growth of human medullary thyroid carcinoma cell line (TT); format: cell-based; settings: 240 h, TT cells, 10 days culture, read-out: inhibitory activity against cell growth (IC50)
Experimental: Human medullary thyroid carcinoma cell line (TT, purchased from ATCC) was suspended in RPMI1640 medium containing 15% FBS (purchased from Sigma). 0.1 mL per well of this cell suspension (3×10^4 cells/mL) was added to 96-well cell culture plate (purchased from NUNC), and cultured in a 5% CO2 incubator (37° C.) overnight. […] After cultivation, 10 μL of […] (purchased from DOJINDO) was added to each well, treated in 5% CO2 incubator (37° C.) for color development and absorbance of each well was determined with plate reader MTP-500 (Corona Electric) at measurement wavelength of 415 nm and reference wavelength of 660 nm. Percentage (%) of the absorbance of each well with the test substance was determined compared to the absorbance of well without the test substance, based on which concentration of the test substance required for inhibiting cell growth for 50% (IC50) was calculated.

Erk1/2 = Erk1/2 phosphorylation in human medullary thyroid carcinoma cell line (TT), western blotting; format: cell-based; settings: TT cells, 1 hour treatment
Experimental: Human medullary thyroid carcinoma cell line (TT, purchased from ATCC) was suspended in RPMI1640 medium containing 15% FBS (purchased from Sigma). TT is a cell expressing RET where cysteine at codon 634 in the wild-type RET amino acid sequence is mutated with tryptophan (Biochemical and Biophysical Research Communications, 207, 1022-1028, 1995). Two mL of this cell suspension per well (4×10^5 cells/mL) was added to 6-well cell culture plate (purchased from FALCON), and cultured in a 5% CO2 incubator (37° C.) overnight. After cultivation, supernatant was removed from each well and 1.8 mL of RPMI1640 medium containing 15% FBS was added. […] Supernatant was removed from each well, which was then washed with 400 μL of PBS, and added with 100 μL of solubilizing buffer (50 mM Hepes (pH7.4), 150 mM NaCl, 10% (v/v) glycerol, 1% Triton X-100, 1.5 mM MgCl2, 1 mM EDTA (pH 8.0), 100 mM NaF, 1 mM PMSF, 10 μg/mL, Aprotinin, 50 μg/mL Leupeptin, 1 μg/mL Pepstatin A and 1 mM Na3VO4). Cells in this solution were harvested with a scraper and treated at 15,000 rpm and 4° C. for 15 minutes. SDS buffer was added to the supernatant and subjected to treatment at 94° C. for 5 minutes to solubilize the protein, which was then prepared to 20 μg/10 μL as a cell extract. […]

[3] = system: human medullary thyroid carcinoma cell line (TT); settings: Journal of the National Cancer Institute, 98, 326-334, 2006; cited from earlier work
[4] = system: NIH3T3 cells transformed with mutant RET; settings: Cancer Research, 15, 7284-7290, 2002; cited from earlier work
[5] = system: NIH3T3 cells transformed with mutant RET; settings: Cancer Research, 15, 7284-7290, 2002; cited from earlier work; remark: listed apart in the source

IC50 [2]: 78 nM
Structure (SMILES): COc1cc2nccc(Oc3ccc(NC(=O)NC4CC4)c(Cl)c3)c2cc1C(N)=O [4-(3-chloro-4-(cyclopropylaminocarbonyl)aminophenoxy)-7-methoxy-6-quinolinecarboxamide]
antitumor effect (tumor volume) [1]: dose-dependent antitumor effect
RET autophosphorylation inhibitory activity in tumor (RET): RET autophosphorylation inhibitory activity at the dose found to exert antitumor effect
inhibition of Erk1/2 phosphorylation (Erk1/2): at a concentration similar to that for RET kinase

Structure (SMILES): CNC(=O)c1cc(Oc2ccc(NC(=O)Nc3ccc(Cl)c(C(F)(F)F)c3)cc2)ccn1 [BAY 43-9006]
size of tumor [3]: reduce the size of tumor

Structure (SMILES): COc1cc2c(Nc3ccc(Br)cc3F)ncnc2cc1OCC1CCN(C)CC1 [ZD6474]
scaffold-independent proliferation [4]: suppress scaffold-independent proliferation
tumor formation [5]: inhibited tumor formation
